From EP2605769B1, “BENZOQUINONE DERIVATIVES FOR THE TREATMENT OF MITCHONDRIAL EYE DISEASES” (Santhera Pharmaceuticals (Schweiz) AG, priority 2010, dated 2012)
“And” between values parts separate entries of the source, which are not always exact repeats. Identical values can stand only once. Like-named read-outs stand apart in the source and are kept apart here.

What was measured:
[1] = system: RGC-5 cells; experiment: Cellular viability of RGC-like cells challenged with rotenone (cellular ATP content); assay type: cell-based
From the text: Mitochondrial impairment directly influences cellular survival. Especially cells and tissues that display high level of energy consumption, such as neurons are especially vulnerable. Consequently, these cells and tissues are likely to be the most responsive to a strategy that targets mitochondrial function. We addressed this possibility by assessing the viability of the retinal ganglion cell line RGC-5, challenged with the mitochondrial complex I inhibitor rotenone, in the absence or presence of compounds.
Experimental procedure: RGC-5 cells were cultured under ambient conditions (37 °C, 5% CO2, 90% humidity) in DMEM (1g/l glucose; 10% fetal bovine serum (FBS), Penicillin-Streptomycin-Glutamine (PSG)). RGC-5 cells will be seeded in DMEM (1g/l glucose; 2% FBS) into BD Falcon™ cell culture plates. Before rotenone- induced complex I inhibition, the cells were pre-treated with Compound IA or vehicle. For Compound IA co-treatment with rotenone, new compound was added together with rotenone-containing cell culture media. After the rotenone exposure, the media was exchanged and replaced by Hanks' BSS for the 1 day post-incubation. The post-treatment media contained Compound IA or vehicle only. As measure of cell viability, cellular ATP content was analyzed using luminescence from ATP-dependent enzymatic oxidation of luciferin by luciferase. RGC-5 cells were be washed with PBS and lysed in lysis buffer (4 mM EDTA, 0.2% Triton X-100) at room temperature. In 96-well plates, ATP measurement buffer (25 mM HEPES pH 7.25, 300 µM D-luciferin, 5 µg/ml firefly luciferase, 75 µM DTT, 6.25 mM MgCl2, 625 µM EDTA and 1 mg/ml BSA) was combined with lysate to start the reaction. Luminescence was quantified immediately using a multimode plate reader (Tecan M1000, Tecan iControl 1.6 software; Tecan Austria GmbH, Grödig, Austria). Effects on cell viability were defined as the percentage of compound-mediated change in cell viability relative to rotenone-induced reduction in cell viability. Data are presented as mean ± SEM. Paired Student's t-test was used to compare non-normalized data. Statistical significance was set at p≤0.05(*), p≤0.01(**) and p≤0.001(***).

[2] = Pharmacokinetic analysis in plasma and eye fluids after oral administration; assay type: in vivo, mice; settings: for Kp: single oral 400 mg/kg; for AUC(0-t): read-out: AUC0-6h
Procedure: Pharmacokinetic analysis of test compounds after oral administration aims to determine its bioavailability and clearance in the plasma and in the eye fluids (aqueous and vitreous humor). The test compounds are quantified in the plasma and in the aqueous and vitreous humor after acute and repeated treatment (with different routes of administration). The time-dependent concentration is then determined and pharmacokinetic parameters (Cmax, AUC0-t, tmax) are calculated.
Experimental procedure: Male wild-type C57BL/6J mice (7 weeks old, about 25 g body weight) are individually housed in Makrolon type II cages with standard bedding and free access to food and water under a regular 12-hours light-dark cycle (8 a.m. to 8 p.m.). Mice receive single or daily repeated oral doses of the test compounds (ranging from 20 to 2000 mg/kg of body weight) or the vehicle administered though the diet or by gavage at the end of the light phase. The treatment can be followed by a washout period. Samples for pharmacokinetic analysis are taken at different time intervals following compound administration. Mice are anesthetized by 5% isofluran inhalation in an induction chamber and sacrificed by cervical dislocation. Blood is collected from the head cut for plasma extraction. Eye balls are dissected out to collect aqueous and vitreous humor. Samples are snap frozen in liquid nitrogen and stored (-80°C) until analyzed by LC-MS/MS and accordingly to standardized procedures. All mouse procedures are performed in accordance with the Swiss regulation and under a license approved by the "Kantonales Veterinäramt Basel-Land".
The pharmacokinetic profile of idebenone (compound IA) was assessed, following a single oral gavage dose to male mice. […] Furthermore, the ratio (vitreous humor /plasma and aqueous humor/plasma) appeared to be independent of the time post dose, consistent with a lack of accumulation of idebenone in the eye. The overall extent of exposure to idebenone in the vitreous humor, as measured by AUC0-6h, represented about 2 % of that observed in plasma (vitreous/plasma ratio; Table 8). Similarly, the extent of exposure to idebenone in the aqueous humor represented about 3 % of that observed in plasma (aqueous/plasma ratio; Table 8).

[3] = C57BL/6J, mouse, Aqueous Humor, single oral administration at 400 mg/kg, male mice
[4] = C57BL/6J, mouse, Plasma, single oral administration at 400 mg/kg, male mice
[5] = C57BL/6J, mouse, Vitreous Humor, single oral administration at 400 mg/kg, male mice

## COC1=C(OC)C(=O)C(CCCCCCCCCCO)=C(C)C1=O [Compound IA, Idebenone]
[1]; 1 day-preincubation, 100 nM
  cell viability, compound-mediated change relative to rotenone-induced reduction, mean: 12.6%
[1]; 1 day-preincubation, 1 µM
  cell viability, compound-mediated change relative to rotenone-induced reduction, mean (Fig. 2): highly significant
[1]; 2 day-preincubation, 1 nM
  cell viability, compound-mediated change relative to rotenone-induced reduction, mean: 1.0%
[1]; 2 day-preincubation, 10 nM
  cell viability, compound-mediated change relative to rotenone-induced reduction, mean: 7% and 7.3%
[1]; 2 day-preincubation, 100 nM
  cell viability, compound-mediated change relative to rotenone-induced reduction, mean: 35% and 34.9%
[1]; 2 day-preincubation, 1000 nM
  cell viability, compound-mediated change relative to rotenone-induced reduction, mean: 58% and 58.4%
[1]; rotenone challenge, dose dependent
  concentrations at which viability of RGC-5 cells was significantly rescued: ≥ 10 nM
[2]; C57BL/6J, mouse, aqueous humor / plasma, male mice, read-out: extent of exposure in the aqueous humor relative to plasma
  Kp: ~0.03
[2]; C57BL/6J, mouse, vitreous humor / plasma, male mice, read-out: extent of exposure in the vitreous humor (AUC0-6h) relative to plasma
  Kp: ~0.02
[2]; [3]
  Cmax: 86.2 ng/mL
  Tmax: 15 min
  AUC(0-t): 62.6 ng·h/mL
[2]; [4]
  AUC(0-inf): 1960 ng·h/mL
  Cmax: 1070 ng/mL
  Tmax: 15 min
  half-life: 102 min
  AUC(0-t): 1860 ng·h/mL
[2]; [5]
  Cmax: 37.9 ng/mL
  Tmax: 15 min
  AUC(0-t): 38.1 ng·h/mL
[2]; Plasma, single oral administration at 400 mg/kg, male mice
  λz: 0.409 h⁻¹
[2]; oral dietary or gavage administration, mouse, post-dose
  time of maximum in vitreous and aqueous humors (up-take into the eye): < 15 min
[2]; single oral dose of 400 mg/kg, first sampling time post-dose
  time of maximum concentration in plasma, vitreous and aqueous humors: 15 min
